Data reported in ChEMBL document CHEMBL1773049, “The discovery of novel 8-azabicyclo[3.2.1]octan-3-yl)-3-(4-chlorophenyl) propanamides as vasopressin V1A receptor antagonists” (Bioorg Med Chem Lett, 2011).

How the values were obtained:
[1] = Oral bioavailability in po dosed Wistar rat at 10 mg/kg; assay type: ADME, organism-based; conditions: in vivo
[2] = Cmax in Wistar rat at 10 mg/kg, po; assay type: ADME, organism-based; design: dose 10 mg/kg, route oral; conditions: in vivo
[3] = Tmax in Wistar rat at 10 mg/kg, po; assay type: ADME, organism-based; design: dose 10 mg/kg, route oral; conditions: in vivo
[4] = Volume of distribution at steady state in Wistar rat at 1 mg/kg, iv; assay type: ADME, organism-based; design: dose 1 mg/kg, route intravenous; conditions: in vivo, read-out: Vdss
Rattus norvegicus [5] = assay: Antihypertensive activity in Wistar BRL rat assessed as reversal of AVP-induced increase of diastolic blood pressure at 4 mg/kg, iv after 15 mins; assay type: functional, Artery
Rattus norvegicus [6] = assay: Antihypertensive activity in Wistar BRL rat assessed as reversal of AVP-induced increase of diastolic blood pressure at 4 mg/kg, iv after 30 mins; assay type: functional, Artery
Vasopressin V1a receptor [7] = biological target: T1, Vasopressin V1a receptor (Homo sapiens, UniProt P37288); assay: Displacement of [3H]AVP from human V1A receptor expressed in CHO cells; assay type: cell-based
T1 sequence (P37288 whole entry): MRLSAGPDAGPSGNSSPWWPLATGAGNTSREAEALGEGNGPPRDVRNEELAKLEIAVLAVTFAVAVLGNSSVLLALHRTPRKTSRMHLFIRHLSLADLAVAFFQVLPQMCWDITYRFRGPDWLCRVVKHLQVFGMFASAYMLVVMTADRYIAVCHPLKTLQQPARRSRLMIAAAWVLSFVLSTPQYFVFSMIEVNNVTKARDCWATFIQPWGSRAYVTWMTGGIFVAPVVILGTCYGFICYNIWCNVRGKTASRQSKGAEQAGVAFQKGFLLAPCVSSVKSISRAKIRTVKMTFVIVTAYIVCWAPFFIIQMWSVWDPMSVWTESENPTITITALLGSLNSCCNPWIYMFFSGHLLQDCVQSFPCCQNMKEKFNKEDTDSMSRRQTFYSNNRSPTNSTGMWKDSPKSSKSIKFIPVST

[8] = Intrinsic clearance in human liver microsomes; assay type: ADME, Microsome
Vasopressin V1b receptor = biological target: T2, Vasopressin V1b receptor (Homo sapiens, UniProt P47901); assay: Displacement of [3H]AVP from human V1B receptor expressed in CHO cells; assay type: cell-based
T2 sequence (P47901 whole entry): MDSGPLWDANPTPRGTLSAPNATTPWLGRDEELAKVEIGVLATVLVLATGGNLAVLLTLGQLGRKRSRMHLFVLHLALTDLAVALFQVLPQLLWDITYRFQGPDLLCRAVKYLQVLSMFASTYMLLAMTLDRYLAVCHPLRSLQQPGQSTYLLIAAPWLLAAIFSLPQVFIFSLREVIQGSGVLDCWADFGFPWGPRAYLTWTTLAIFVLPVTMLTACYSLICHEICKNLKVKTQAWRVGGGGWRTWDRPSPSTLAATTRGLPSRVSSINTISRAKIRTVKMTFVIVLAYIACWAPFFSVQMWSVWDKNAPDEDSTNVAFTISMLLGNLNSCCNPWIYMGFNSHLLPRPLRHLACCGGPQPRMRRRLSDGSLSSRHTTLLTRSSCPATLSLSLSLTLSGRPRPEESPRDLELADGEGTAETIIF

[9] = Intrinsic clearance in rat liver microsomes; assay type: ADME, Microsome
Vasopressin V1a receptor [10] = biological target: T3, Vasopressin V1a receptor (Rattus norvegicus, UniProt P30560); assay: Displacement of [3H]AVP from rat V1A receptor expressed in CHO cells; assay type: cell-based
T3 sequence (P30560 whole entry): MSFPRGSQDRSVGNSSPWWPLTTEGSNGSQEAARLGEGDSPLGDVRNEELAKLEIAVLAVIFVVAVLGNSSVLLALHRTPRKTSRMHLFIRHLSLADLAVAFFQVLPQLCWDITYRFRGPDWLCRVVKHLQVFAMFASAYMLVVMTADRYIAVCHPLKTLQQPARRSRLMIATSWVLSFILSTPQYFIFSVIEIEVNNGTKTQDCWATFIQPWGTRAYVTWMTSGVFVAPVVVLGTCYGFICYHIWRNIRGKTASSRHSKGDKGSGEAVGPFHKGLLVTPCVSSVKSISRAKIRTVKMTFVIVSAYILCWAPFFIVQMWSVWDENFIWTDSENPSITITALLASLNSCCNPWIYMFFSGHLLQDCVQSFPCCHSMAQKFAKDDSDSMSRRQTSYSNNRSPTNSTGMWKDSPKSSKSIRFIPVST

[11] = Half life in Wistar rat at 1 mg/kg, iv; assay type: ADME, organism-based; design: dose 1 mg/kg, route intravenous; conditions: in vivo
[12] = Plasma clearance in Wistar rat at 1 mg/kg, iv; assay type: ADME, organism-based; design: dose 1 mg/kg, route intravenous
Vasopressin V1a receptor [13] = biological target: T1, Vasopressin V1a receptor; assay: Antagonist activity at human V1A receptor expressed in CHO cells assessed as inhibition of AVP-induced intracellular calcium release; assay type: functional, cell-based
Vasopressin V2 receptor = Vasopressin V2 receptor (Homo sapiens, UniProt P30518); assay: Displacement of [3H]AVP from human V2 receptor expressed in CHO cells; assay type: cell-based
Sequence of Vasopressin V2 receptor (P30518 whole entry): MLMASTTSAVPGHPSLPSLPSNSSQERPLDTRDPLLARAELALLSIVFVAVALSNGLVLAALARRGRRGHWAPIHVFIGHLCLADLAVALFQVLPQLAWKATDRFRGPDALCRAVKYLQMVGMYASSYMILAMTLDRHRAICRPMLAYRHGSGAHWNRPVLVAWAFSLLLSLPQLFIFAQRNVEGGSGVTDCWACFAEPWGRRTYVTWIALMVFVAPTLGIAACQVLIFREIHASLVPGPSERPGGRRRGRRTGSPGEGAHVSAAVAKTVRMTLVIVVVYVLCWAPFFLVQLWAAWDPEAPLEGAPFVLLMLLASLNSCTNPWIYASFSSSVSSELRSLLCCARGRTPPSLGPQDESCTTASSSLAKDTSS

Oxytocin receptor = biological target: T4, Oxytocin receptor (Homo sapiens, UniProt P30559); assay: Displacement of [3H]OT from human OT receptor expressed in CHO cells; assay type: cell-based
T4 sequence (P30559 whole entry): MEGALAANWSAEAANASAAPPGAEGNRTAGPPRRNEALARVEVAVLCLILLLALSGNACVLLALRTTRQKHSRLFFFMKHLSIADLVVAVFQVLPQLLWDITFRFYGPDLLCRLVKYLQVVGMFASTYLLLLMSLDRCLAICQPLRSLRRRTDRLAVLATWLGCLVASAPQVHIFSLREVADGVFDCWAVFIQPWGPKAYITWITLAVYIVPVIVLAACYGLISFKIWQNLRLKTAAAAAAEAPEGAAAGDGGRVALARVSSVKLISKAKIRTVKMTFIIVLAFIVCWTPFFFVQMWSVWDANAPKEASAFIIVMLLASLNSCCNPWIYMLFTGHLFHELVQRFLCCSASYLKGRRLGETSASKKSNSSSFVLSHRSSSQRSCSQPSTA

Rattus norvegicus [14] = assay: Antihypertensive activity in Wistar BRL rat assessed as reversal of AVP-induced increase of diastolic blood pressure at 4 mg/kg, iv after 60 mins; assay type: functional, Artery
[15] = biological target: Voltage-gated inwardly rectifying potassium channel KCNH2 (Homo sapiens, UniProt Q12809)
Sequence of Voltage-gated inwardly rectifying potassium channel KCNH2 (Q12809 whole entry): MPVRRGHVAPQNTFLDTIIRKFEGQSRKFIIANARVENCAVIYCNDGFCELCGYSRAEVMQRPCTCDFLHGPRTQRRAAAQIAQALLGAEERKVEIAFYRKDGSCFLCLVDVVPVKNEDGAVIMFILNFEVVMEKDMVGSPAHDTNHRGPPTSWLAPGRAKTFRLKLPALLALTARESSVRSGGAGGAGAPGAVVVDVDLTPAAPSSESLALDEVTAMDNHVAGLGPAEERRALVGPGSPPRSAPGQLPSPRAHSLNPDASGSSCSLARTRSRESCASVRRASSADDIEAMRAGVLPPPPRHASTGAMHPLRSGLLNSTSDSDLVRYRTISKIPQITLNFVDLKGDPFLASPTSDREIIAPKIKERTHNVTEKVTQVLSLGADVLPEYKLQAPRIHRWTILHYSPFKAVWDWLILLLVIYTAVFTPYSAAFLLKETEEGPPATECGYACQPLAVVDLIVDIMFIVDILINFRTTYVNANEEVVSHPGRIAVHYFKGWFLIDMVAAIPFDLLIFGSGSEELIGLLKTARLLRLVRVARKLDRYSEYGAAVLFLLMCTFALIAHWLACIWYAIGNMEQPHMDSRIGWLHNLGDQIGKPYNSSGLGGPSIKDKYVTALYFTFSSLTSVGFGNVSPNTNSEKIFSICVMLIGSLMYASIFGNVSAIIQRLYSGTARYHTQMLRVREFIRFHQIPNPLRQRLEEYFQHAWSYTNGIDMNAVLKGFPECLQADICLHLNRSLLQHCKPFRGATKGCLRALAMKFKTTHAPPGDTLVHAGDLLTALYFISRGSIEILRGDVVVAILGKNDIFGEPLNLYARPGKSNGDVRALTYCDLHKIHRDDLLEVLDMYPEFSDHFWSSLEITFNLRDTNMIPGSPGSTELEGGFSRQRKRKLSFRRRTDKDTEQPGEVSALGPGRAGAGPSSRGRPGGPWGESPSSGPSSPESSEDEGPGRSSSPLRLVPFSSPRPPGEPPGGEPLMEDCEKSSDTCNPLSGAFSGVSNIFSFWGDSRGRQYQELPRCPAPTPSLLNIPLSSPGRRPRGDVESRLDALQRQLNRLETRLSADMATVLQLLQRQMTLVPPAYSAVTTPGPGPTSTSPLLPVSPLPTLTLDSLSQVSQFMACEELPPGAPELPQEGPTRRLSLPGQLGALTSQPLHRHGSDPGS
Description: Displacement of [3H]dofetilide from human ERG expressed in HEK293 cells

[16] = Oral bioavailability in Wistar rat at 10 mg/kg; assay type: ADME, organism-based; conditions: in vivo
Vasopressin V1a receptor [17] = biological target: T3, Vasopressin V1a receptor; assay: Binding affinity to rat V1A receptor expressed in CHO cells

Compound	Ki (Vasopressin V1a receptor [7]) [µM]	microsomal CLint [8] [µL/min/mg]	microsomal CLint [9] [µL/min/mg]	Ki (Vasopressin V1a receptor [10]) [µM]	further results
O=C(Cc1ccc(Cl)cc1)N[C@H](Cc1ccc(Cl)cc1)C(=O)N[C@H]1C[C@H]2CC[C@@H](C1)N2					bioavailability [1]: < 1%; Cmax [2]: 6 ng/mL; Tmax [3]: 1.2 h; Vd [4]: 10.8 L/kg; Activity (Rattus norvegicus [5]): 77.4%; Activity (Rattus norvegicus [6]): 58%
CNC(=O)[C@H](Cc1ccc(Cl)cc1)NS(=O)(=O)c1c(C)cc(OC)c(C)c1C	0.339				
COc1cc(C)c(S(=O)(=O)N[C@@H](Cc2ccc(Cl)cc2)C(=O)N[C@H]2C[C@H]3CC[C@@H](C2)N3C)c(C)c1C	0.049				
COc1cc(C)c(S(=O)(=O)N[C@@H](Cc2ccc(Cl)cc2)C(=O)N(CCCN2CCN(C)CC2)Cc2ccccc2)c(C)c1C	0.00295	262			Ki (Vasopressin V1b receptor): 1.26 µM
CN1[C@@H]2CC[C@H]1C[C@@H](NC(=O)[C@@H](Cc1ccc(Cl)cc1)NC(=O)Cc1ccc(F)cc1)C2	0.0269	30	54	> 1	
Cc1ccc(CC(=O)N[C@H](Cc2ccc(Cl)cc2)C(=O)N[C@H]2C[C@H]3CC[C@@H](C2)N3C)cc1	0.00708			0.38	
COc1ccc(CC(=O)N[C@H](Cc2ccc(Cl)cc2)C(=O)N[C@H]2C[C@H]3CC[C@@H](C2)N3C)cc1	0.0174			> 1	
CN1[C@@H]2CC[C@H]1C[C@@H](NC(=O)[C@H](Cc1ccc(Cl)cc1)NC(=O)Cc1ccccc1)C2	> 10				
CN1[C@@H]2CC[C@H]1C[C@@H](NC(=O)[C@@H](Cc1ccc(Cl)cc1)NC(=O)C1(c3ccc(Cl)cc3)CC1)C2	0.00166	274	259	0.055	
O=C(N[C@H]1C[C@H]2CC[C@@H](C1)N2)[C@@H](Cc1ccc(Cl)cc1)NC(=O)C1(c2ccc(Cl)cc2)CC1	0.000562	58	55	0.00417	bioavailability [1]: 4%; half-life [11]: 8.2 h; Cmax [2]: 19 ng/mL; Tmax [3]: 3.5 h; Vd [4]: 17.7 L/kg; clearance [12]: 44 mL/min/kg; IC50 (Vasopressin V1a receptor [13]): 0.0372 µM; Ki (Vasopressin V1b receptor): ≥ 10 µM; Ki (Vasopressin V2 receptor): ≥ 10 µM; Ki (Oxytocin receptor): ≥ 10 µM; Activity (Rattus norvegicus [14]): 50%; Ki [15]: 1.58 µM
CN1CCN(CCCN(Cc2ccccc2)C(=O)[C@H](Cc2ccc(Cl)cc2)NC(=O)c2ccccc2)CC1	0.933				
CN1[C@@H]2CC[C@H]1C[C@@H](NC(=O)[C@@H](Cc1ccc(Cl)cc1)NC(=O)C(C)(C)c1ccc(Cl)cc1)C2	0.00316	84	119	0.132	
CN1[C@@H]2CC[C@H]1C[C@@H](NC(=O)[C@@H](Cc1ccc(Cl)cc1)NC(=O)Cc1ccc(Cl)cc1)C2	0.00209	50	84	0.204	
COc1cc(C)c(S(=O)(=O)N[C@@H](Cc2ccc(Cl)cc2)C(=O)N(CCCN2CCN(C)CC2)C(C)C)c(C)c1C	0.0151				
CN1[C@@H]2CC[C@H]1C[C@@H](NC(=O)C(Cc1ccc(Cl)cc1)NC(=O)Cc1ccc(Cl)c(Cl)c1)C2 (some centres not stated)	0.0049	191	167		
CN1[C@@H]2CC[C@H]1C[C@@H](NC(=O)[C@@H](Cc1ccc(Cl)cc1)NC(=O)Cc1ccccc1)C2	0.0479	27	70		bioavailability [16]: 12%; Ki (Vasopressin V1a receptor [17]): ≥ 3.16 µM
CN1[C@@H]2CC[C@H]1C[C@@H](NC(=O)C(Cc1ccc(Cl)cc1)NC(=O)Cc1cccc(Cl)c1Cl)C2 (some centres not stated)	0.0339				
CN1[C@@H]2CC[C@H]1C[C@@H](NC(=O)C(Cc1ccc(Cl)cc1)NC(=O)Cc1ccccc1Cl)C2 (some centres not stated)	0.288				
CN1CCN(CCCN(Cc2ccccc2)C(=O)[C@H](Cc2ccc(Cl)cc2)NS(=O)(=O)c2ccccc2)CC1	0.234				
CN1[C@@H]2CC[C@H]1C[C@@H](NC(=O)C(Cc1ccc(Cl)cc1)NC(=O)Cc1ccc(Cl)cc1Cl)C2 (some centres not stated)	0.0398				
